For one data set, the system named is H2226. The data set is described as follows: Cell cycle analysis (propidium iodide, FACScan). It is filed as cell-based. The following applies: H2226, 24 h exposure at 500 nM.
Data set [1] has as its system NSCLC cell lines (H2228, H3122, A549, HOP62, HOP92). The data set is described as follows: MTT assay, growth inhibition, NSCLC panel. It is filed as cell-based. The following applies: 72 h, 72 h exposure, 4 of 5 NSCLC cell lines. The protocol: (§1) Protein levels were analyzed by Western Blot with commercial antibodies; RT-PCR was done with Fast SYBR Green Master Mix on a StepOnePlus Real-Time PCR System at baseline, 4 and 24 h post-treatment. For cell cycle analysis cells were stained with propidium iodide and DNA content analyzed with a FACScan flow cytometer. Compound (1-1) was combined with the targeted agents everolimus and crizotinib and the combination index (CI) determined by the Chou-Talalay method.
(§2) Materials and Methods. Five established NSCLC cell lines, HOP62, HOP92, A549, H2228, and H3122 harboring different oncogenic mutations for KRAS, LKB I, TP53 and ALK (FIG. 13) were exposed to increasing doses of compound (1-1) (OncoEthix SA, Switzerland) for 72 h and cell proliferation was evaluated by MTT assays. Results represent the mean±95% CI of at least 3 independent experiments performed in triplicate. Protein levels were analyzed by Western blot using commercial antibodies. For cell cycle analysis cells were stained with PI and analyzed using a FACScan flow cytometer after 24 h of treatment. […] Concomitant compound (1-1) combination studies were performed in cell lines exposed for 48 h to increasing doses of compound (1-1) alone or in combination with everolimus or crizotinib, and assessed using the Chou & Talalay method. Combination Index (CI) was determined by median effect plot analysis using CalcuSyn software. […]
On the technique in general: Tetrazolium dyes change colour on reduction, which living cells bring about.

Another data set has as its system H2228 cells. The data set is described as follows: Combination with crizotinib, Chou-Talalay combination index. The class given is cell-based. The following applies: 48 h concomitant exposure, dihydrate. On the procedure:
as §1, §2

For another data set, the system named is DMS114 cells. The data set is described as follows: MTT assay, growth inhibition. It is filed as cell-based. The following applies: Homo sapiens, DMS-114, read-out: GI50 (95% CI), 72 h exposure. On the procedure:
(§3) Protein levels were analyzed by Western Blot using commercial antibodies and RT-PCR was performed with Fast SYBR Green Master Mix on a StepOnePlus Real-Time PCR System at baseline, then 4 and 24 h post-treatment. For cell cycle analysis, cells were stained with propidium iodide and analyzed for DNA content with a FACScan flow cytometer.
(§4) Cell lines were exposed to increasing doses of compound (1-1) for 72 hours, and cell proliferation was evaluated with the MTT assay. GI50 and Emax values were calculated with the equation for sigmoidal dose response using Prism 5.00 for Windows. Results represent the mean±95% CI of at least 3 independent experiments performed in triplicate.
(§5) For cell cycle analysis, cells were stained with propidium iodide and analyzed with a FACScan flow cytometer. RNA was isolated after treatment with DMSO or OTX015 (500 nM) for 2, 4, 8 or 12 and 24 h and gene expression profiles (GEP) were obtained in all NSCLC and 2 SCLC (H82 and DMS114) cell lines with Illumina HumanHT-12 Expression BeadChips. Data mining was done with LIMMA, GSEA, Metacore.

In the next data set the test system is DMS79 cells. The data set is described as follows: MTT assay, growth inhibition. The following applies: Homo sapiens, DMS-79, 72 h exposure. The class given is cell-based. On the procedure: as §3, §4, §5
Another data set relates to H69 cells. The data set is described as follows: MTT assay, growth inhibition. The class given is cell-based. The following applies: Homo sapiens, NCI-H69, 72 h exposure. On the procedure:
as §3, §4, §5

A further data set concerns H82 cells. The data set is described as follows: MTT assay, growth inhibition. It is filed as cell-based. The following applies: Homo sapiens, NCI-H82, 72 h exposure. On the procedure: as §3, §4, §5
A short description of data set [2]: Oral exposure in the rat (pharmacokinetics). The following applies: 1 mg/kg intravenous, rats. The class given is in vivo, Sprague Dawley rats. On the procedure: The oral bioavailability of three formulations of solid dispersions of compound (1-1) was determined in rats. The three dispersions chosen were the 25% dispersion of compound (1-1) in PVP, the 25% dispersion of compound (1-1) in HPMCAS-MG, and the 50% dispersion of compound (1-1) in HPMCAS-MG. The animals used in the study were Specific Pathogen Free (SPF) Hsd:Sprague Dawley rats obtained from the Central Animal Laboratory at the University of Turku, Finland. The rats were originally purchased from Harlan, The Netherlands. The rats were female and were ten weeks of age, and 12 rats were used in the study. […]
The oral dosing solutions containing the 25% dispersion of compound (1-1) in PVP, the 25% dispersion of compound (1-1) in HPMCAS-MG, and the 50% dispersion of compound (1-1) in HPMCAS-MG were prepared by adding a pre-calculated amount of sterile water for injection to containers holding the dispersion using appropriate quantities to obtain a concentration of 0.75 mg/mL of compound (1-1). […]
Pharmacokinetic parameters were calculated with the Phoenix WinNonlin software package (version 6.2.1, Pharsight Corp., CA, USA) with standard noncompartmental methods. The elimination phase half-life (t1/2) was calculated by least-squares regression analysis of the terminal linear part of the log concentration-time curve. […]

A further data set has as its system H3122 cells. The data set is described as follows: H3122 tumor-bearing mice. It is filed as in vivo, male athymic NMRI nude mice. The following applies: 3 weeks of treatment. The protocol: In vivo studies: 5×10^6 H3122 cells were injected in the flank of male athymic NMRI nude mice, and mice were randomized to 3 groups (8 mice/group) when tumor volume reach 100 mm^3; vehicle (PBS, once daily, oral continuous), Compound (1-1) (50 mg/kg/bidaily, gavage, continuous), or crizotinib (25 mg/kg/daily, gavage, continuous).

The next data set deals with H3122. The data set is described as follows: Cell cycle analysis (propidium iodide, FACScan). The class given is cell-based. The following applies: H3122, 24 h exposure at 500 nM. The protocol:
as §1, §2

In another data set the test system is HOP92. The data set is described as follows: Cell cycle analysis (propidium iodide, FACScan). It is filed as cell-based. The following applies: HOP92, 24 h exposure at 500 nM. The protocol: as §1, §2
The target of the next data set is FKBP12 (Homo sapiens, UniProt P62942). The following applies: cited from earlier work.
Sequence of FKBP12 (P62942 whole entry, species assumed): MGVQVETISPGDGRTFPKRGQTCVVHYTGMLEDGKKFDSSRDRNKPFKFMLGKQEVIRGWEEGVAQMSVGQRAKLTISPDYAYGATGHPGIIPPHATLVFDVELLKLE
The next data set relates to PI3K/mTOR. The following applies: cited from earlier work.
The subject of data set [3] is Akt phosphorylation on S473. The following applies: cited from earlier work.
Data set [4] has as its system Akt phosphorylation on T308. The following applies: cited from earlier work.
In the next data set the test system is PDGFR. The following applies: read-out: IC50 PDGFR; cited from earlier work.
A further data set has as its target PI3Kβ (p110β) (Homo sapiens, UniProt P42338). The following applies: cited from earlier work.
A further data set deals with PI3Kγ (p110γ) (Homo sapiens, UniProt P48736). The following applies: cited from earlier work.
Sequence of PI3Kγ (p110γ) (P48736 whole entry, species assumed): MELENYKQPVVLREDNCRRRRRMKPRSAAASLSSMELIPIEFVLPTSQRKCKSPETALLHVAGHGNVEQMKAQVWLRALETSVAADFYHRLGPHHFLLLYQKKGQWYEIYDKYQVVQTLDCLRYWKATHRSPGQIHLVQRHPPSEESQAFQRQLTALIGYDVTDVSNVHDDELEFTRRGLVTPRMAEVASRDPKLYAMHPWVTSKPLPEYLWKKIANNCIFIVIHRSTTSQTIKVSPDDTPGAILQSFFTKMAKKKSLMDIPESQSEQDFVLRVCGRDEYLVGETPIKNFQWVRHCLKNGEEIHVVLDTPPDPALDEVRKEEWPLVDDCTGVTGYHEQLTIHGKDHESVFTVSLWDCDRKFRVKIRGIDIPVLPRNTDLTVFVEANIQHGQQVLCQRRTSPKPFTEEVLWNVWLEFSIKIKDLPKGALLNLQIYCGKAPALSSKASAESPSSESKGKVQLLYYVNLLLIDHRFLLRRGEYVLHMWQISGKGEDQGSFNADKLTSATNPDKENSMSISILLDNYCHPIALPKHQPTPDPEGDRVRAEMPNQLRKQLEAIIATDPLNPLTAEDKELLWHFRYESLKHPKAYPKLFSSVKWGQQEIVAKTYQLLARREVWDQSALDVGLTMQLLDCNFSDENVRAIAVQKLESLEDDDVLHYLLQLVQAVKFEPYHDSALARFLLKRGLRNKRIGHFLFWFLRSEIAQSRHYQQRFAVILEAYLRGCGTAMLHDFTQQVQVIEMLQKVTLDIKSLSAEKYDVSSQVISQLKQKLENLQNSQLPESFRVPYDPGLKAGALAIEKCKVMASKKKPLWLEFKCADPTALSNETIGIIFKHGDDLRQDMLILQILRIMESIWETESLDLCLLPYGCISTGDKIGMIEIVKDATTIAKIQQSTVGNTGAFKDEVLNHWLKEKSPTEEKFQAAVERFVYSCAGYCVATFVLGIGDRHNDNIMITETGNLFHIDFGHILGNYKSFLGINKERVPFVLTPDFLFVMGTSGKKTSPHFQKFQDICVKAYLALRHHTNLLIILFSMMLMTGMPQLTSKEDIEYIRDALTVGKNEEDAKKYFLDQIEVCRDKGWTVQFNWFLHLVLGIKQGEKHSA

Several values for one entry are separate records, joined by “and”; a condition that tells them apart may be missing. Identical values can stand only once. Where only a bound is given, the exact number is not on record here.

As usually defined, the GI50 is the concentration at which growth is held to half of that of the control. What is called IC50 is the point on the concentration scale where inhibition reaches its midpoint. The term Ki denotes a dissociation constant, usually derived from enzyme kinetics or from competition with a known ligand.

Sequence of PI3Kβ (p110β) (P42338 whole entry, species assumed): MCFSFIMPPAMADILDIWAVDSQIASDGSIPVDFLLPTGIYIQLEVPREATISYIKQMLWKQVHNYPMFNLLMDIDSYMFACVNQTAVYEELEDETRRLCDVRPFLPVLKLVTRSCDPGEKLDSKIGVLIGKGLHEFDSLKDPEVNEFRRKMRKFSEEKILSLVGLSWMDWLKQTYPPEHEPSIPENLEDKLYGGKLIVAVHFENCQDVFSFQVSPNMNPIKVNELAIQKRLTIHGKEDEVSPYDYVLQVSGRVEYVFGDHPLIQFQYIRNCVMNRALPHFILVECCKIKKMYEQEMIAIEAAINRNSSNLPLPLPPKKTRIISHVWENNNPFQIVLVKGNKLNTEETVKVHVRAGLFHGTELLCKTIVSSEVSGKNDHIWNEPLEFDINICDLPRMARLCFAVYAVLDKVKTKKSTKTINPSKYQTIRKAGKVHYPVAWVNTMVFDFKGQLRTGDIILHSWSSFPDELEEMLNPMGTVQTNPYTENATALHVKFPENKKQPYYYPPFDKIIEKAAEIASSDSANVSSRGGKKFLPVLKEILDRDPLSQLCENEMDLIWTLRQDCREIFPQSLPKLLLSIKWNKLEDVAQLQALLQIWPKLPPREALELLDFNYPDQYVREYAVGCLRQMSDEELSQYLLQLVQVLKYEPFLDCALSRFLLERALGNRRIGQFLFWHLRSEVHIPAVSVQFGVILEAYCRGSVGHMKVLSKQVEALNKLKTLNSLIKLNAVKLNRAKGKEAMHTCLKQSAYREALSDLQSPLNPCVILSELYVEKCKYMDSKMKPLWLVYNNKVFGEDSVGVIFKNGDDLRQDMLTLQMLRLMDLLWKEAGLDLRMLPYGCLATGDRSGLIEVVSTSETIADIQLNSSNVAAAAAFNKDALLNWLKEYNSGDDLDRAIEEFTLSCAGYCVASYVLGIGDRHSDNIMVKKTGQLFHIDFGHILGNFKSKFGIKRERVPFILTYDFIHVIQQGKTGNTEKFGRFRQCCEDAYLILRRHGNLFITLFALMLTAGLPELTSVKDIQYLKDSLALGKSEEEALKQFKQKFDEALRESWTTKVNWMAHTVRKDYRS
Sequence of PI3Kβ (p110β) (P27986 whole entry partner, species assumed): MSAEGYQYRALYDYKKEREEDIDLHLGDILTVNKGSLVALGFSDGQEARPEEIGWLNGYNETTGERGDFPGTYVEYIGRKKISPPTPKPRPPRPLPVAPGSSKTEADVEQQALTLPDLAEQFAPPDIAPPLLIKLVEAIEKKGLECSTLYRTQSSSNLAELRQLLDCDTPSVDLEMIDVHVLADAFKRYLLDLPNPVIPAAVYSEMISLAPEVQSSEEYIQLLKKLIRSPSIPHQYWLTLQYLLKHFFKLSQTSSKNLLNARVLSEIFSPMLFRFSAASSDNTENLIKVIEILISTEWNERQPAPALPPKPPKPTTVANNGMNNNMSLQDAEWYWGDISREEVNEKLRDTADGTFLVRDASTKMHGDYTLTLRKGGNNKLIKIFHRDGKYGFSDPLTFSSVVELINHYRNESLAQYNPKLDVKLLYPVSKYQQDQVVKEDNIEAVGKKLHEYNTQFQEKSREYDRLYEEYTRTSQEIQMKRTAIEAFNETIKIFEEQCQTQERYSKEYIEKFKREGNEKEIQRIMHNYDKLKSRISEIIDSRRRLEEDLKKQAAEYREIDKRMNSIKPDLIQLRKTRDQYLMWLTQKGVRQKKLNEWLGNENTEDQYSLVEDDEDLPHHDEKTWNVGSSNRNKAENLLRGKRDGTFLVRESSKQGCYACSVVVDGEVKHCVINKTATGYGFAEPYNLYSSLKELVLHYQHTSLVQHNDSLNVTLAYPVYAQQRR

For `Cc1sc2c(c1C)C(c1ccc(Cl)cc1)=N[C@@H](CC(=O)Nc1ccc(O)cc1)c1nnc(C)n1-2` [Compound (1-1), 2-[(6S)-4-(4-chlorophenyl)-2,3,9-trimethyl-6H-thienol[3,2-f]-[1,2,4]triazolo[4,3-a][1,4]diazepin-6-yl]-N-(4-hydroxyphenyl)acetamide dihydrate], the “reduction of percent cells in the S phase” value is reported as 42% with H2226, 52% in the data set with H3122 and 40% in the data set with HOP92. The GI50 was 110 to 940 nM in data set [1]; 120 nM in the data set with DMS114 cells; more than 6000 nM in the data set with DMS79 cells; more than 6000 nM in the data set on H69 cells; more than 6000 nM with H82 cells. Moreover, the “combination index (CI) with crizotinib” value in the data set on H2228 cells was 0.98 and 0.9. The same compound registered a CI/F in [2] of 13.4 mL/min/kg. Besides, the weight loss entry with H3122 cells is on record as “no weight loss was observed”.

`CO[C@H]1C[C@@H]2CC[C@@H](C)[C@@](O)(O2)C(=O)C(=O)N2CCCC[C@H]2C(=O)O[C@H]([C@H](C)C[C@@H]2CC[C@@H](OCCO)[C@H](OC)C2)CC(=O)[C@H](C)/C=C(\C)[C@@H](O)[C@@H](OC)C(=O)[C@H](C)C[C@H](C)/C=C/C=C/C=C/1C` [Everolimus]: on FKBP12, the IC50 is 1.6 to 2.4 nM.

As to `COc1ccc(-c2ccc3ncc4c(c3c2)n(-c2ccc(N3CCNCC3)c(C(F)(F)F)c2)c(=O)n4C)cn1` [NVP-BGT226], the IC50 in the data set with PI3K/mTOR is 1 nM.

Regarding `COc1ccc(-c2cc3c(C)nc(N)nc3n([C@H]3CC[C@H](OCCO)CC3)c2=O)cn1` [PF-04691502], the IC50 was 3.8 nM in data set [3] and 7.5 nM in data set [4].

With `Nc1ncnc2c1c(-c1cnc3[nH]ccc3c1)nn2C1CCCC1` [PP-121], in the data set with PDGFR, the IC50 is 2 nM.

GSK2126458: the Ki at PI3Kβ (p110β) is 0.13 nM; on PI3Kγ (p110γ) it was 0.024 nM.

Source of the values: US9901583B2, “Method of treating non-small cell lung cancer and/or small cell lung cancer using thienotriazolodiazepine compounds” (ONCOETHIX GMBH, priority 2014, dated 2018).
